Test results from patent publication US20240156959A1, “COMBINATION THERAPY FOR THE TREATMENT OF CANCER COMPRISING AN ANTl-EGFR ANTIBODY AND AN AXL-INHIBITOR” (Yeda Research and Development Co. Ltd., priority 2021, published 2024).

Assays:
[1] = tested on: AXL-overexpressing tumors; test: Whole exome sequencing, untreated vs TKI-treated relapsing tumors; type: in vivo, mice
Experimental: (§1) Whole exome sequencing: Genomic DNA was isolated using PureLink™ Genomic DNA Mini Kit (Cat# K182002). The qualtiy of the DNA was checked by agarose gel ecltrophoresis and Qubit dsDNA HS Assay kit (Thermo Fisher Scientific). Exome sequencing libraries were prepared according to the manufacturer's instructions (Twist Human core exome kit+RefSeq Panel). Input gDNA (50 ng) from each sample was processed for enzymatic fragmentation, subsequent end repair, and dA-tailing to generate dA-tailed DNA fragments. Twist Universal Adapters were ligated to the dA-tailed DNA fragments, and purified to generate gDNA libraries ready for index introduction through amplification. A gDNA library adapted with Twist CDI primers was amplified and purified. The quality of the amplified library was confirmed using capillary electrophoresis (Bioanalyzer, Agilent). Prior to hybridization, the volume of each library was adjusted using the respective concentration of each Amplified Indexed Library. Ten libraries were multiplexed by 150 ng to give a total mass of 1500 ng. The pre-hybridization solution containing library, probes, RefSeq Panel and blockers was dried using a SpeedVac system and low heat. 0.020 ml of the fast hybridization mix was added to the dried pre-hybridization solution, and then 0.030 ml hybridization enhancer was added on top of the pre-hybridization solution. The mixture was incubated for 5 min at 95° C. and later heated for 2 hours at 60° C. in a thermal cycler (Fast Hybridization). Streptavidin Binding Beads (100 μl) were washed three times with 0.2 ml Fast Binding Buffer and re-suspended in 0.2 ml binding buffer. The hybridization mixture was added to the bead suspension and incubated for 30 min at RT with mixing. The beads were washed once, preheated in Fast Wash Buffer 1 for 5 min at 70° C., and three times with 0.2 ml of Wash Buffer2 for 5min at 48° C. DNA was eluted with 0.045 ml nuclease-free water (Streptavidin Binding Bead slurry). The captured library was amplified using PCR to enrich for fragments. The quality of the amplified libraries was verified by means of automated electrophoresis (Tapestation, Agilent). […]
(§2) Alignment and variant calling: Sequence QC was done through FastqQC 0.11.5 (Andrews 2015). Reads were mapped to human reference genome sequence (hg19; NCBI GRCh37) using bwa 0.7.12 (H. Li and Durbin 2009). […]
(§3) Animal experiments: All animal studies were approved by our institutional board and they were performed in accordance with the guidelines of the Institutional Animal Care and Use Committee (IACUC). […] Tumor volume was estimated using vernier caliper measurements of the longest axis, a/mm, and the perpendicular axis, b/mm Volumes were calculated in accordance with the equation V=(4 π/3)×(a/2)^2×(b/2). […]

[2] = tested on: PC9 tumors; test: as above; type: in vivo, mice
Experimental: as §1, §2, §3

[3] = tested on: RAD18; test: RAD18 immunoprecipitation and immunoblotting in DTPs; type: cell-based; details: erlotinib 1 μM, 2-9 days
Experimental: FIGS. 3A-G. AXL and RAD18 are functionally linked. (B) PC9 cells were treated with erlotinib (1 μM), or DMSO and RNA was subjected to real time PCR. (C) Transcriptomic data corresponding to 506 patients with lung adenocarcinoma were used to generate an expression correlogram of 19 DNA damage response genes. Pearson correlation coefficients are indicated in each square (see scale code). (D) Parental and RAD18 knockout cells were treated for 9 days with a TKI. Fractions of surviving DTPs are shown. (E) Naïve and RAD18-knockout cells were probed using anti-AXL or anti-RAD18 antibodies. Thereafter, the cells were processed for proximity ligation analysis (red signals). Representative images and PLA quantification are shown. Bar, 20 μm. (F) Cells were treated for 2-9 days with erlotinib (1 μM) or H2O2 (40 μM). Extracts were subjected to immunoprecipitation with an anti-RAD18 or control antibody and immunoprecipitates were immunoblotted. (G) Naïve and AXL-overexpressing cells, along with PC9ER cells, were treated with erlotinib (1 μM). Genomic DNA was isolated after 9 days and the T790M point mutation was determined using digital PCR. Shown are fraction of T790M in cellular DNA. Data are means ±SEM (4 experiments). […]

[4] = tested on: AXL; test: Re-analysis of AXL mRNA levels in a published patient dataset; type: in vivo; details: 23 patients, specimens prior to and after treatment, p<0.05
Text: FIGS. 1A-G: Upregulation of AXL is essential for resistance and tolerance. (A) PC9 cells (2×10^6) were subcutaneously implanted in nude mice. […] Tumor volumes are presented (average ±SEM). (B) 3-4 mice from each group presented in A were euthanized when tumors reached 1,500 mm 3 Tumors were extracted and subjected to immunoblotting. Tubulin (TUB) served as the loading control. (C and D) AXL-overexpressing (C) and AXL-knockout PC9 cells (2×10^6, D), along with naïve cells, were subcutaneously implanted in mice. When tumors became palpable, mice were randomized and treated as in A. (E) Data were re-analyzed for AXL mRNA levels in 23 patients with EGFR+NSCLC. Specimens (total=53) were collected at several time points, prior to and after treatment with osimertinib. (F and G) AXL-overexpressing (OX; F) or AXL-knockout PC9 cells (KO; G), along with naïve cells, were untreated or treated with TKIs (1 or 3 μM). Drugs and media were refreshed on day 3 and 6. On day 9, remaining cells (DTPs) were fixed, stained and quantified. Averages±S.D. (triplicates) are shown.

| Compound | increase in base alterations in relapsing tumors [1] [fold] | increase in base alterations in relapsing tumors [2] [fold] | ubiquitination of PCNA [3] | ubiquitination of RAD18 [3] | AXL mRNA levels in EGFR tumors of patients [4] |
| --- | --- | --- | --- | --- | --- |
| C#Cc1cccc(Nc2ncnc3cc(OCCOC)c(OCCOC)cc23)c1 [erlotinib] | 2.42 | 2.31 | increased ubiquitination of PCNA | reduced ubiquitination of RAD18 | – |
| C=CC(=O)Nc1cc(Nc2nccc(-c3cn(C)c4ccccc34)n2)c(OC)cc1N(C)CCN(C)C [osimertinib] | 2.52 | 2.37 | – | – | AXL up-regulation |
